Laboratory results taken from US9586943B2, “Bilaterally-substituted tricyclic compounds for the treatment of human immunodeficiency virus type-1 (HIV-1) infection and other diseases” (CENTRO DE INVESTIGACIÓN PRINCIPE FELIPE, priority 2013, dated 2017).
Like-named read-outs stand apart in the source and are kept apart here.

Assays:
[1] = tested on: Staphilococcus aureus (ATCC 35556); assay: Disk diffusion assay (Kirby-Bauer), S. aureus; type: cell-based; conditions: disk potency 20 μg, 8 mm discs, 16-18 hours at 37° C.
[2] = biological target: TARc hairpin; assay: SPR binding specificity relative to control TARc hairpin; design: species or system HIV-1
Description: (§1) The interaction of these biphenyl and terphenyl compounds with the RRE RNA hairpin (SEQ. ID. No 1) was analysed using surface plasmon resonance (SPR) experiments(19). In addition to the RRE, two control RREc (SEQ. ID. No 2) and TARc (SEQ. ID. No 3) hairpins were also immobilised on the chips. In the RREc hairpin the internal loop forming the Rev high-affinity binding site is replaced with a G:G opposition, whereas in the TARc hairpin this loop is substituted with the HIV-1 Tat-binding UCU bulge(20). In this way, applicants could simultaneously assess the interaction of each ligand with RRE, RREc and TARc, obtaining important information about binding selectivity. In addition, the SPR methodology allows deduction of binding stoichiometries, which are likewise related to the specificity of the interaction between a ligand and a given RNA species. These are key considerations in the nucleic acid recognition field(4, 5, 14).
(§2) The Surface Plasmon Resonance (SPR) experiments were carried out at 25° C. with a Biacore T100 optical biosensor system, 4-channel streptavidin-derivatized Series S SA chips, and either 10 mM MES (pH 6.25), 150 mM NaCl, 1 mM EDTA and 0.005% P20 or 10 mM HEPES pH 7.4, 150 mM NaCl, 3 mM EDTA and 0.005% P20 aqueous solutions as mobile phases. After immobilizing approximately 300 response units (RU) of the RRE, RREc and TARc RNA hairpins on the chips, the compounds were injected during 10-minute periods at a flow rate of 20 μL/min and at concentrations generally ranging from 0.01 μM to 100.0 μM, and then allowed to dissociate for 10 more minutes. The RNA surfaces were regenerated with solutions containing 0.5 to 1 M NaCl and 10 to 100 mM NaOH, depending on the ligand.
(§3) RNA-ligand SPR equilibrium dissociation constants (Kd) were determined by fitting the sensorgrams to one-site or two-site equations:
[formula] [formula] where RU is the response in the steady-state region of the sensorgrams, C is the concentration of free compound in equilibrium with the complex, RUmax is the maximum response and RI is an offset term accounting for the bulk refractive index contribution of the sample. In these models, Kd, RUmax and RI are adjustable parameters, and the stoichiometry of each binding site was determined by comparing the fitted RUmax values with the predicted ones, calculated from the molecular weights of RNA and compound and the amount of RNA in the flow cell(32). The two-site equation was only utilized if it provided a clear curve-fitting improvement over the one-site model. […] All SPR experiments were double-referenced(33).

[3] = tested on: HIV-1 LTR promoter; type: cell-based
[4] = Cellular viability (CellTiter Glo); type: cell-based; conditions: human, MT-2 cells; 48 h, CellTiter Glo; read-out: CC50 (celular viability)
[5] = biological target: RRE-Rev34-50 interaction (RRE hairpin and frevp); assay: Fluorescence polarization displacement assay of the RRE-Rev34-50 interaction; type: binding, HIV-1
[6] = biological target: RREc hairpin; assay: SPR binding specificity relative to control RREc hairpin; design: species or system HIV-1
Description: as §1, §2, §3
[formula] [formula] where RU is the response in the steady-state region of the sensorgrams, C is the concentration of free compound in equilibrium with the complex, RUmax is the maximum response and RI is an offset term accounting for the bulk refractive index contribution of the sample. In these models, Kd, RUmax and RI are adjustable parameters, and the stoichiometry of each binding site was determined by comparing the fitted RUmax values with the predicted ones, calculated from the molecular weights of RNA and compound and the amount of RNA in the flow cell(32). The two-site equation was only utilized if it provided a clear curve-fitting improvement over the one-site model. The specificity of the RRE interaction was quantified by calculating the Kd(RREc)/Kd(RRE) and […] ratios. All SPR experiments were double-referenced(33).

[7] = tested on: HIV-1 (NL4.3-Ren); assay: microbe, parasite or virus in culture; type: cell-based; conditions: for EC50: read-out: EC50 (NL4.3-Ren)
[8] = biological target: RRE RNA hairpin (internal loop IIB); assay: SPR analysis of interaction with RRE RNA hairpin; type: binding, HIV-1
[9] = tested on: Escherichia coli (ATCC 53868); assay: Disk diffusion assay (Kirby-Bauer), E. coli; type: cell-based; conditions: disk potency 20 μg, 8 mm discs, 16-18 hours at 37° C.
[10] = tested on: full-length competent HIV-1 clone; assay: microbe, parasite or virus in culture; type: cell-based; conditions: Human immunodeficiency virus 1, MT2, 48 h, read-out: EC50 post-integration
[11] = tested on: MT-2 cells; assay: Cellular viability (CellTiter Glo); type: cell-based
[12] = tested on: RRE-Rev; assay: microbe, parasite or virus in culture; type: cell-based, HIV-1
[13] = tested on: RRE hairpin; assay: Two-dimensional NMR (TOCSY) titration of the RRE hairpin; type: binding, HIV-1; conditions: D2O, pH 6.0
[14] = read-out: IC50 (RRE-Rev 50% inhibitory concentration), fluorescence polarization, 25° C., 60 nM RRE and 10 nM frevp
[15] = Human immunodeficiency virus 1, 48 h
[16] = fluorescence anisotropy, read-out: IC50 (RRE-Rev34-50 inhibition)
[17] = 25° C., pH 7.4, high affinity site when two-site model, footnote d compounds: ligand range 0.1-25 μM, read-out: Kd(RRE)

Compound | disk susceptibility of S. aureus (diameter of the inhibition area) [1] | inhibition of HIV-1 LTR-mediated transcription (in words) [3] | CC50 at 48 h [4] [µM] | IC50 [5, 14] [µM] | EC50 [7, 15] [µM] | disk susceptibility of E. coli (diameter of the inhibition area) [9] | EC50 [10] [µM] | cellular toxicity (in words) [11] | inhibition of HIV-1 replication (in words) [7] | RRE interaction by NMR chemical shift perturbation (in words) [13] | also measured
COc1cc(CCN)c(-c2ccc(-c3cc(CCN)c(O)c(CCN)c3)c(OC)c2)c(CCN)c1 [IIS-358, 2″,3,5,6″-Tetrakis(2-aminoethyl)-2′,4″-dimethoxy-(1,1′:4′,1″-terphenyl)-4-ol chlorhydrate] | inactive | inhibited transcription of the reporter gene | > 100 | 808 ± 462 | > 100 | inactive |  |  |  |  | Kd(TARc)/Kd(RRE) ([2]; 25° C., pH 6.3): 6.0; Kd(RREc)/Kd(RRE) ([6]; 25° C., pH 6.3): 1.9; Kd ([8]; 25° C., pH 6.3, high affinity site when two-site model, JB-399 and IIS-530: ligand range 0.1-25 μM, read-out: Kd(RRE)): 13 ± 9 µM
COc1cc(CCN)c(-c2cc(C)c(-c3cc(CCN)c(OCc4ccccc4)c(CCN)c3)c(C)c2)c(CCN)c1 [IIS-375, 2,2′,2″,2′″-[4″-(Benzyloxy)-4-methoxy-3′,5′-dimethyl-(1,1′:4′,1″-terphenyl)-2,3″,5″,6-tetrayl]tetraethanamine chlorhydrate] |  |  | > 100 | 32.2 ± 2.3 | 24.8 |  | 21.4 | no cellular toxicity | inhibited HIV-1 replication |  | 
COc1cc(CCN)c(-c2cc(C)c(-c3cc(CCN)c(O)c(CCN)c3)c(C)c2)c(CCN)c1 [IIS-420, 2″,3,5,6″-Tetrakis(2-aminoethyl)-4″-methoxy-2′,6′-dimethyl-(1,1′:4′,1″-terphenyl)-4-ol chlorhydrate] |  | inhibited transcription of the reporter gene | > 100 |  | 3.4 |  | 5 | no cellular toxicity | inhibited HIV-1 replication | greatest RNA chemical shift variations | IC50 ([12]; Human immunodeficiency virus 1, read-out: IC50 (RRE-Rev), pCMV-Rev 20 ng, pDM628 500 ng/well): 10.4 ± 2.4 µM; IC50 ([12]; Human immunodeficiency virus 1, read-out: IC50 (RRE-Rev), pCMV-Rev 200 ng, pDM628 500 ng/well): 21.4 ± 6.3 µM; IC50 ([12]; Human immunodeficiency virus 1, read-out: IC50 (RRE-Rev), pCMV-Rev 500 ng, pDM628 500 ng/well): 50 to 100 µM; IC50 ([12]; Human immunodeficiency virus 1, read-out: IC50 (Rev-mediated transport of RRE-containing RNA), depends on concentration of Rev-encoding plasmid): 10.4 to 21.4 µM; IC50 [5, 16]: 6.8 µM
CCc1cc(-c2c(CCN)cc(OC)cc2CCN)ccc1-c1cc(CCN)c(OCc2ccccc2)c(CCN)c1 [IIS-758, 2,2′,2″,2′″-[4″-(Benzyloxy)-3′-ethyl-4-methoxy-(1,1′:4′,1″-terphenyl)-2,3″,5″,6-tetrayl]tetraethanamine chlorhydrate] |  | inhibited transcription of the reporter gene | > 100 | 78.1 ± 6.5 | 32.3 |  | 17 | no cellular toxicity | inhibited HIV-1 replication |  | Kd(TARc)/Kd(RRE) ([2]; 25° C., pH 7.4): 2.0; Kd(RREc)/Kd(RRE) ([6]; 25° C., pH 7.4): 1.3; Kd [8, 17]: 16.7 ± 1.6 µM
CCc1cc(-c2c(CCN)cc(OC)cc2CCN)cc(CC)c1-c1cc(CCN)c(OCc2ccccc2)c(CCN)c1 [IIS-771, 2,2′,2″,2′″-(4″-(benzyloxy)-3′,5′-diethyl-4-methoxy-[1,1′:4′,1″-terphenyl]-2,3″,5″,6-tetrayl)tetraethanamine] |  |  | > 100 | 77.2 ± 15.5 | 42.6 |  | > 100 | no cellular toxicity | inhibited HIV-1 replication |  | Kd(TARc)/Kd(RRE) ([2]; 25° C., pH 7.4): 1.7; Kd(RREc)/Kd(RRE) ([6]; 25° C., pH 7.4): 1.0; Kd [8, 17]: 17.6 ± 1.8 µM
NCCc1cc(-c2cc(CCN)c(O)c(CCN)c2)cc(CCN)c1O [JB-391, 3,3′,5,5′-tetrakis(2-aminoethyl)-[1,1′-biphenyl]-4,4′-diol] | inactive |  | > 100 |  | 50 to 100 | inactive | > 100 |  |  | unspecific | IC50 [5, 16]: 7.7 µM
NC[C@@H]1O[C@H](O[C@H]2[C@@H](O)[C@H](O[C@@H]3[C@@H](O)[C@H](N)C[C@H](N)[C@H]3O[C@H]3O[C@H](CN)[C@@H](O)[C@H](O)[C@H]3N)O[C@@H]2CO)[C@H](N)[C@@H](O)[C@@H]1O [Neomycin B, neomycin B, reference compound] | 12.8 ± 1.9 |  |  |  |  | 15.2 ± 2.1 |  |  |  | unspecific | Kd(TARc)/Kd(RRE) [2]: 2.3; CC50 ([11]; 48 h, CellTiter Glo, read-out: CC50 (celular viability)): > 100 µM; Ki ([5]; calculated from IC50, assuming one ligand molecule displaces frevp, read-out: Ki inhibition constant): 2 ± 0.2 µM; Kd(RREc)/Kd(RRE) [6]: 0.9; EC50 ([7]; HIV-1 infection assay, 48 h post-infection): > 100 µM; Kd ([8]; higher affinity site, read-out: equilibrium dissociation constant Kd (RRE)): 2.4 ± 1.1 µM
